# Measurements as given in US20130131161A1, “METHODS AND COMPOSITIONS FOR CARDIOVASCULAR DISEASES AND CONDITIONS” (priority 2009, published 2013).
# “And” between values parts separate entries of the source, which are not always exact repeats. Equal values may be shown once.
# System: Human umbilical vein endothelial cells (HUVECs)
# Experiment: eNOS activity analysis: NO, ONOO− and NO/ONOO− release from HUVECs of 50 genotyped donors in response to LA-419 (Example 2)
# Type: cell-based
# Conditions: LA-419 1 μM
# Procedure: Concurrent measurements of NO and ONOO^− were carried out with tandem electrochemical nanosensors combined into one working unit with a total diameter of 200-500 nm (FIG. 1). Their design was based on previously developed and well-characterized chemically modified carbon-fiber technology (Malinski and Taha, 1992; Lvovich and Scheeline, 1997). Each of the nanosensors was made by depositing a sensing material on the tip of a carbon fiber (length 4-5 μm, diameter 0.2-0.5 μm). The fibers were sealed with nonconductive epoxy and electrically connected to copper wires with conductive silver epoxy. A conductive film of polymeric nickel (II) tetrakis(3-methoxy-4-hydroxyphenyl)porphyrin for the NO-sensor and polymeric film of Mn (III) [2.2]paracyclophanylporphyrin was used for the ONOO^−-sensor.
# A module of NO/ONOO^− nanosensors (diameter 1-2 μm) with a platinum wire (0.1 mm) counter electrode and saturated calomel reference electrode (SCE) were applied. Differential pulse voltammetry (DPV) and amperometry were performed with a computer-based Gamry VFP600 multichannel potentiostat. DPV was used to measure the basal NO and ONOO^− concentrations, and amperometry was used to measure changes in NO and ONOO^− concentrations from its basal level with time. The DPV current at the peak potential characteristic for NO oxidation (0.65 V) and ONOO^− reduction (−0.45 V) was directly proportional to the local concentrations of these compounds in the immediate vicinity of the sensor. Linear calibration curves (current vs. concentration) were constructed for each sensor from 10 nM to 3 μM before and after measurements with aliquots of NO and ONOO^− standard solutions, respectively. The detection limit of the sensors was 1.0 nM.
# The quantification of each analyte (concentration in nM) was performed using a maximum current from amperograms and standard calibration curves. A reproducibility of measurements with nanosensors is relatively high (between 5-12%). […] The sensors were slowly raised 5±2 μm from the surface of a single endothelial cell. The eNOS agonist, calcium ionophore A23187 (CaI) as well as the different drugs were then added to the surrounding media at the cell surface with a nanoinjector that was also positioned by a computer controlled-micromanipulator.
# This example describes the genotype-specific response of the three major eNOS variants to 1 μM and 5 μM concentrations of LA-419. The three major genetic polymorphisms studied were the Glu298Asp variant (E298D or 894G→T) in exon 7 of […], the −786T→C variant in the promoter region, and the intron 4 polymorphism (VNTR). All of these variants have possible effects on the cardiovascular system and endothelial dysfunction. For this study, human umbilical vein endothelial cells (HUVECs) from 50 donors between 18 and 32 years of age were used.
# For the analysis several analysis techniques were employed. First, the effect of genotype on NO and ONOO^− release was explored within the different concentrations of LA-419 (control, 1 μM, 5 μM), calculated as the average peak release (nmols/L) of NO, ONOO^−, and NO/ONOO^−. The effect of genotype on the net increase in NO, ONOO^−, and NO/ONOO^− for LA-419 (1 μM and 5 μM) as compared to control was also measured. In addition, an analysis was done on the effect of genotype on the % change in NO, ONOO^−, and NO/ONOO^− production for LA-419 (1 μM and 5 μM), calculated as:
# % Change=[(avg. LA-419−avg. control)/(avg. control)]*100
# Finally, an evaluation was undertaken concerning the effect of genotype on the production of NO, ONOO^−, and NO/ONOO^− as the fold difference of control for LA-419 (1 μM and 5 μM), calculated as:
# Fold Difference=(avg. LA-419)/(avg. control)
# Within each calculation technique the results were compared for statistical significance using a non-parametric ANOVA Kruskal-Wallace test or a non-parametric Mann-Whitney U test. Statistical significance was set at a p-value <0.05 in a two-tailed distribution. […]
# [1] = HUVECs G894T + T-786C Combination of all genotypes other than G/G + T/T
# [2] = HUVECs G894T + T-786C variant G/G + T/C
# [3] = HUVECs G894T + T-786C variant G/G + T/T (Reference)
# [4] = HUVECs G894T + T-786C variant G/T + C/C
# [5] = HUVECs G894T + T-786C variant G/T + T/C
# [6] = HUVECs G894T + T-786C variant G/T + T/T
# [7] = HUVECs G894T + T-786C variant T/T + C/C
# [8] = HUVECs G894T + T-786C variant T/T + T/C
smiles,measurement,setting,value
"CC(=O)SC1COC2C(O[N+](=O)[O-])COC12 (stereo not drawn) [LA-419, S-(6-Nitro-oxi-hexahydro-furo[3,2-b]furan-3-1-il)thioacetate]",Net increase over control NO/ONOO− (mean ± sd),[1],−0.92 (0.90)
same,Net increase over control ONOO− (mean ± sd),[1],−42.43 (111.75) nmols/L
same,Peak release NO (mean ± sd),[1],390.03 (73.13) nmols/L
same,Peak release NO/ONOO− (mean ± sd),[1],1.29 (0.46)
same,Peak release ONOO− (mean ± sd),[1],331.26 (91.43) nmols/L
same,Net increase over control NO (mean ± sd),[2],5.33 (68.90) nmols/L
same,Net increase over control NO/ONOO− (mean ± sd),[2],−0.88 (0.63)
same,Net increase over control ONOO− (mean ± sd),[2],13.13 (106.46) nmols/L
same,Peak release NO (mean ± sd),[2],351.00 (88.83) nmols/L
same,Peak release NO/ONOO− (mean ± sd),[2],1.09 (0.51)
same,Peak release ONOO− (mean ± sd),[2],357.00 (94.18) nmols/L
same,Net increase over control NO (mean ± sd),[3],31.22 (71.86) nmols/L
same,Net increase over control NO/ONOO− (mean ± sd),[3],1.16 (9.12)
same,Net increase over control ONOO− (mean ± sd),[3],−32.54 (86.18) nmols/L
same,Peak release NO (mean ± sd),[3],374.30 (78.06) nmols/L
same,Peak release NO/ONOO− (mean ± sd),[3],1.19 (0.43)
same,Peak release ONOO− (mean ± sd),[3],338.98 (81.16) nmols/L
same,Net increase over control NO (mean ± sd),[4],−53.67 (0) nmols/L
same,Net increase over control NO/ONOO− (mean ± sd),[4],−0.24 (0)
same,Net increase over control ONOO− (mean ± sd),[4],228.33 (0) nmols/L
same,Peak release NO (mean ± sd),[4],334.67 (0) nmols/L
same,Peak release NO/ONOO− (mean ± sd),[4],0.64 (0)
same,Peak release ONOO− (mean ± sd),[4],526.67 (0) nmols/L
same,Net increase over control NO (mean ± sd),[5],76.26 (75.55) nmols/L
same,Net increase over control NO/ONOO− (mean ± sd),[5],−1.21 (1.06)
same,Net increase over control ONOO− (mean ± sd),[5],−81.10 (79.76) nmols/L
same,Peak release NO (mean ± sd),[5],420.44 (56.87) nmols/L
same,Peak release NO/ONOO− (mean ± sd),[5],1.44 (0.32)
same,Peak release ONOO− (mean ± sd),[5],302.82 (59.66) nmols/L
same,Net increase over control NO (mean ± sd),[6],28.92 (13.00) nmols/L
same,Net increase over control NO/ONOO− (mean ± sd),[6],−0.99 (1.06)
same,Net increase over control ONOO− (mean ± sd),[6],−2.83 (64.48) nmols/L
same,Peak release NO (mean ± sd),[6],409.67 (64.25) nmols/L
same,Peak release NO/ONOO− (mean ± sd),[6],1.37 (0.44)
same,Peak release ONOO− (mean ± sd),[6],321.58 (90.82) nmols/L
same,Net increase over control NO (mean ± sd),[7],20.67 (16.77) nmols/L
same,Net increase over control NO/ONOO− (mean ± sd),[7],−0.56 (0.56)
same,Net increase over control ONOO− (mean ± sd),[7],−42.44 (9.91) nmols/L
same,Peak release NO (mean ± sd),[7],334.11 (83.36) nmols/L
same,Peak release NO/ONOO− (mean ± sd),[7],0.96 (0.58)
same,Peak release ONOO− (mean ± sd),[7],398.00 (131.00) nmols/L
same,Net increase over control NO (mean ± sd),[8],20.83 (131.76) nmols/L
same,Net increase over control NO/ONOO− (mean ± sd),[8],0.07 (0.61)
same,Net increase over control ONOO− (mean ± sd),[8],−227.83 (117.62) nmols/L
same,Peak release NO (mean ± sd),[8],420.83 (4.48) nmols/L
same,Peak release NO/ONOO− (mean ± sd),[8],1.80 (0.16)
same,Peak release ONOO− (mean ± sd),[8],234.67 (23.10) nmols/L
same,"% Change Ratio, % Change NO/% Change ONOO− (mean ± sd)",HUVECs G894T variant G/G,0.76 (8.64)
same,Net increase over control NO (mean ± sd),HUVECs G894T variant G/G,23.26 (70.68) nmols/L and 23.26 (70.64) nmols/L
same,Net increase over control NO/ONOO− (mean ± sd),HUVECs G894T variant G/G,0.53 (7.59)
same,Net increase over control ONOO− (mean ± sd),HUVECs G894T variant G/G,−18.49 (93.20) nmols/L
same,Peak release NO (mean ± sd),HUVECs G894T variant G/G,367.13 (80.46) nmols/L
same,Peak release NO/ONOO− (mean ± sd),HUVECs G894T variant G/G,1.16 (0.45)
same,Peak release ONOO− (mean ± sd),HUVECs G894T variant G/G,344.53 (83.88) nmols/L
same,"% Change Ratio, % Change NO/% Change ONOO− (mean ± sd)",HUVECs G894T variant G/T,−1.15 (0.91)
same,Net increase over control NO (mean ± sd),HUVECs G894T variant G/T,58.52 (72.43) nmols/L
same,Net increase over control NO/ONOO− (mean ± sd),HUVECs G894T variant G/T,−1.12 (1.02)
same,Net increase over control ONOO− (mean ± sd),HUVECs G894T variant G/T,−46.52 (105.03) nmols/L
same,Peak release NO (mean ± sd),HUVECs G894T variant G/T,413.28 (58.46) nmols/L
same,Peak release NO/ONOO− (mean ± sd),HUVECs G894T variant G/T,1.38 (0.38)
same,Peak release ONOO− (mean ± sd),HUVECs G894T variant G/T,319.43 (81.89) nmols/L
same,Net increase over control NO (mean ± sd),HUVECs G894T variant G/T & T/T,50.30 (71.57) nmols/L
same,Net increase over control NO/ONOO− (mean ± sd),HUVECs G894T variant G/T & T/T,−0.93 (0.99)
same,Net increase over control ONOO− (mean ± sd),HUVECs G894T variant G/T & T/T,−61.75 (109.14) nmols/L
same,Peak release NO (mean ± sd),HUVECs G894T variant G/T & T/T,403.61 (63.52) nmols/L
same,Peak release NO/ONOO− (mean ± sd),HUVECs G894T variant G/T & T/T,1.36 (0.43)
same,Peak release ONOO− (mean ± sd),HUVECs G894T variant G/T & T/T,322.30 (90.85) nmols/L
same,"% Change Ratio, % Change NO/% Change ONOO− (mean ± sd)",HUVECs G894T variant T/T,−0.66 (1.02)
same,Net increase over control NO (mean ± sd),HUVECs G894T variant T/T,20.73 (66.94) nmols/L
same,Net increase over control NO/ONOO− (mean ± sd),HUVECs G894T variant T/T,−0.31 (0.61)
same,Net increase over control ONOO− (mean ± sd),HUVECs G894T variant T/T,−116.60 (117.55) nmols/L
same,Peak release NO (mean ± sd),HUVECs G894T variant T/T,368.80 (75.73) nmols/L
same,Peak release NO/ONOO− (mean ± sd),HUVECs G894T variant T/T,1.29 (0.63)
same,Peak release ONOO− (mean ± sd),HUVECs G894T variant T/T,332.67 (129.30) nmols/L
same,Net increase over control NO (mean ± sd),HUVECs Intron 4 variant a/a,−25.78 (104.49) nmols/L
same,Net increase over control NO/ONOO− (mean ± sd),HUVECs Intron 4 variant a/a,−0.11 (0.56)
same,Net increase over control ONOO− (mean ± sd),HUVECs Intron 4 variant a/a,26.11 (116.99) nmols/L
same,Peak release NO (mean ± sd),HUVECs Intron 4 variant a/a,360.56 (80.60) nmols/L
same,Peak release NO/ONOO− (mean ± sd),HUVECs Intron 4 variant a/a,0.97 (0.57)
same,Peak release ONOO− (mean ± sd),HUVECs Intron 4 variant a/a,421.11 (124.25) nmols/L
same,Net increase over control NO (mean ± sd),HUVECs Intron 4 variant b/a,56.57 (67.97) nmols/L
same,Net increase over control NO/ONOO− (mean ± sd),HUVECs Intron 4 variant b/a,0.28 (0.43)
